The source made the active and inactive calls. No cut-off for these calls is given here.
Legend:
H9c2 [1] = experiment: Induction of autophagy in isoproterenol-induced rat H9c2 cells assessed as increase in LC3-I to LC3-II conversion by confocal microscopy based analysis; type: functional, cell-based
[2] = Permeability of compound in MDCK cells; type: ADME, cell-based, Canis lupus familiaris; details: dog, read-out: permeability
H9c2 [3] = experiment: Cytotoxicity against rat H9c2 cells assessed as cell viability at 0.001 to 50 uM under normoxia condition by CCK-8 method; type: toxicity, cell-based; details: h9c2, 50 µM, dose 0.001-50 µM
H9c2 [4] = experiment: Induction of apoptosis in isoproterenol-induced rat H9c2 cells assessed as late apoptotic cells at 0.1 micromol/L by annexin V-FITC and PI staining based flow cytometry analysis (reference value: 11.49%); type: toxicity, cell-based; details: h9c2, 0.1 µM, dose 0.1 µmol/L
Mus musculus [5] = experiment: Cardioprotective activity against isoproterenol-induced myocardial injury in C57/6J mouse model assessed as reduction in CK value in serum at 15 mg/kg, ip pretreated with isoproterenol for 3 days followed by compound addition and measured after 3 days by automatic biochemical analysis; type: functional, organism-based; details: time 3.0 day
H9c2 [6] = experiment: Inhibition of ROS production in isoproterenol-induced rat H9c2 cells assessed as reduction in DCF value at 0.1 uM by DCFH-DA staining based flow cytometry analysis (reference value: 371.9); type: functional
H9c2 [7] = experiment: Induction of autophagy in isoproterenol-induced rat H9c2 cells assessed as downregulation of P62 expression by Western blot analysis; type: functional, cell-based
Mus musculus [8] = experiment: Cardioprotective activity against isoproterenol-induced myocardial injury in C57/6J mouse model assessed as suppression of mTORC1 overexpression at 15 mg/kg, ip pretreated with isoproterenol for 3 days followed by compound addition and measured after 3 days by immunohistochemistry analysis; type: functional, organism-based; details: time 3.0 day
Mus musculus [9] = experiment: Cardioprotective activity against isoproterenol-induced myocardial injury in C57/6J mouse model assessed as effect on cTNI level in serum at 15 mg/kg, ip pretreated with isoproterenol for 3 days followed by compound addition and measured after 3 days by automatic biochemical analysis; type: functional, organism-based; details: time 3.0 day
Mus musculus [10] = experiment: Cardioprotective activity against isoproterenol-induced myocardial injury in C57/6J mouse model assessed as reduction in cardiac swelling size at 15 mg/kg, ip pretreated with isoproterenol for 3 days followed by compound addition and measured after 3 days (reference value: 5.15 millimeter); type: functional; details: time 3 day
Mus musculus [11] = experiment: Cardioprotective activity against isoproterenol-induced myocardial injury in C57/6J mouse model assessed as decrease in heart weight ratio at 15 mg/kg, ip pretreated with isoproterenol for 3 days followed by compound addition and measured after 3 days (reference value: 0.56 %); type: functional; parameters: scale not given: the % may be the effect or the level left; details: time 3 day
H9c2 [12] = experiment: Induction of autophagy in isoproterenol-induced rat H9c2 cells assessed as downregulation of PARP1 expression by Western blot analysis; type: functional, cell-based
H9c2 [13] = experiment: Induction of ATP production in isoproterenol-induced rat H9c2 cells at 0.1 micromol/L by fluorescence based analysis; type: functional; details: dose 0.1 µmol/L
H9c2 [14] = experiment: Induction of apoptosis in isoproterenol-induced rat H9c2 cells assessed as early apoptotic cells at 0.1 micromol/L by annexin V-FITC and PI staining based flow cytometry analysis (reference value: 10.37%); type: toxicity, cell-based; details: h9c2, 0.1 µM, dose 0.1 µmol/L
[15] = Toxicity in isoproterenol-induced male C57/6J mouse model assessed as recovery of growth rate at 15 mg/kg, ip pretreated with isoproterenol for 3 days followed by compound addition and measured after 3 days; type: organism-based; details: in vivo, 72 h, time 3 day
[16] = Passive permeability in MDCK cells; type: ADME, cell-based, Canis lupus familiaris; details: dog, read-out: permeability
Mus musculus [17] = experiment: Cardioprotective activity against isoproterenol-induced myocardial injury in C57/6J mouse model assessed as decrease in CK-MB level in serum at 15 mg/kg, ip pretreated with isoproterenol for 3 days followed by compound addition and measured after 3 days by automatic biochemical analysis; type: functional, organism-based; details: time 3.0 day
[18] = Drug uptake in lysosomes of rat H9c2 cells assessed as time required for compound concentration in lysosomes to exceed the cell lysates by HPLC analysis; type: ADME, subcellular, Lysosome

Q: For `CCOC(=O)C1=C[C@@H](OC(CC)CC)[C@H](NC(C)=O)[C@@H](N)C1` [OSELTAMIVIR], which Activity (H9c2 [1]) is on record?
A: Its Activity is “inactive”.

Q: And the Papp [2]?
A: The Papp was 58 ×10⁻⁶ cm/s.

Q: And the Activity (H9c2 [3])?
A: Its Activity is “Non-Toxic”.

Q: And the Activity (H9c2 [4])?
A: Its Activity is 8.91%.

Q: And the Activity (Mus musculus [5])?
A: Its Activity is “Active”.

Q: And the Activity (H9c2 [6])?
A: The Activity was 309.1.

Q: What about the Activity (H9c2 [7]) of the same molecule?
A: The Activity was “Active”.

Q: And the Activity (Mus musculus [8])?
A: Its Activity is “Active”.

Q: What about the Activity (Mus musculus [9]) of the same molecule?
A: The Activity was “Active”.

Q: What about the Activity (Mus musculus [10]) of the same molecule?
A: Its Activity is 4.65 mm.

Q: What about the Activity (Mus musculus [11]) of the same molecule?
A: The Activity was 0.5%.

Q: And the Activity (H9c2 [12])?
A: Its Activity is “Active”.

Q: And the Activity (H9c2 [13])?
A: Its Activity is 38.3 nmol/mg.

Q: What about the Activity (H9c2 [14]) of the same molecule?
A: The Activity was 2.78%.

Q: What about the Activity [15] of the same molecule?
A: The Activity was “Non-Toxic”.

Q: What about the Papp [16] of the same molecule?
A: The Papp was over 20 ×10⁻⁶ cm/s.

Q: What about the Activity (Mus musculus [17]) of the same molecule?
A: The Activity was “Active”.

Q: With `CCC(CC)O[C@@H]1C=C(C(=O)O)C[C@H](N)[C@H]1NC(C)=O` [OSELTAMIVIR CARBOXYLATE] as the molecule, how does the Time [18] read?
A: The Time was 7.15 min.

Q: Which Activity (H9c2 [3]) does the source give for `CCC(CC)O[C@@H]1C=C(C(=O)OCCc2ccncc2)C[C@H](N)[C@H]1NC(C)=O` here?
A: Its Activity is “Non-Toxic”.

Reference: ChEMBL document CHEMBL5614434, “A Lysosome-Targeting hNEU1 Inhibitor Treats Myocardial Infarction: A Potential Therapeutic Breakthrough” (J Med Chem, 2024)
